{"source": "patent US9198915B2", "about": "“Methods involving aldose reductase inhibitors” (The Board of Regents of The University of Texas System, priority 2007, dated 2015)", "type_in_all_cases": "cell-based, human", "key": {"SAEC [1]": {"test_system": "SAEC", "experiment": "RW-induced apoptosis in SAEC (annexin V/PI flow cytometry)", "conditions": "zopolrestat 20 μM, RW 150 μg/ml, 18 h", "protocol": "Small Airway Epithelial cells (SAEC) obtained from Cambrex Bio Science Walkersville, Inc. (Walkersville, Md.) contains normal human SAEC from distal airspace of donor. The cells were cultured according to the supplier's instructions at 37° C. in humidified atmosphere containing 95% air and 5% CO2 in small airway epithelial basal medium (SABM) with supplements containing 52 μg/ml bovine pituitary extract, 0.5 ng/ml human recombinant epidermal growth factor (EGF), 0.5 μg/ml epinephrine, 1 μg/ml hydrocortisone, 10 μg/ml transferrin, 5 μg/ml insulin, 0.1 ng/ml retinoic acid (RA), 6.5 ng/ml triiodothyronine, 50 μg/ml Gentamicin/Amphotericin-B (GA-1000), and 50 μg/ml fatty acid-free bovine serum albumin (BSA).\nApproximately 2×10^5 SAEC/well were plated in 6-well plates in triplicate for each group. After 24 hours, the medium was replaced with serum-free SABM with or without zopolrestat (20 μM). The cells were induced by RW (150 μg/mL) and incubated for 18 h. Apoptotic cell death was examined using the annexin V-FITC/PI, (molecular probes, Invitrogen) according to the manufacturer's instructions. Twenty thousand events were acquired for each sample and analyzed by flow cytometry using the LYSIS II software (FACScan, BD Pharmingen)."}, "[2]": {"test_system": "IL-6, IL-8 and Cox-2 mRNA", "experiment": "RW-induced IL-6, IL-8 and Cox-2 mRNA in SAEC (RT-PCR)", "conditions": "RW 50 μg/ml, 6 h", "protocol": "The SAECs were grown in 6-well plates at a density of approximately 3.0×10^5 cells/well. After approximately 80% confluence, cells were serum-starved in the presence or absence of sorbinil or zopolrestat (20 μM) for 24 h and then stimulated with 50 μg/ml RW for 6 h. Total RNA from SAECs was isolated by using RNeasy kit (Qiagen) as per supplier's instructions. Aliquots of RNA (0.5-1.0 μg) isolated from each sample were reverse transcribed with Omniscript and Sensiscript reverse transcriptase one-step RT-PCR system with HotStar Taq DNApolymerase (Qiagen) at 55° C. for 30 min followed by PCR amplification. The oligonucleotide primer sequences were as follows: 5′-ATGAACTCCT TCTCCACAAGCGC-3′ (SEQ ID NO:3) (sense) and 5′-[…]-3′ (SEQ TD NO:4) (antisense) for IL-6; 5′-[…]-3′ (SEQ ID NO:5) (sense) and 5′-TCT […]-3′ (SEQ ID NO:6) (antisense) for IL-8; 5 ‘-TGAAACCCACTCCA AACACAG-3’ (SEQ ID NO:7) (sense) and 5′-[…]-3′ (SEQ ID NO:8) (antisense) for Cox-2; and 5′-[…]-3′ (SEQ ID NO:9) (sense) and 5′-CGTC […]-3′ (SEQ ID NO:10) (antisense) for β-actin. PCR was carried out in a PCR Sprint thermal cycler (Thermo electron corporation, Milford, Mass.) under the following conditions: initial denaturation at 95° C. for 15 min followed by 35 cycles of 94° C. 1 min, 62° C. 1 min, 72° C. 1 min, and then 72° C. 10 min for final extension. […]"}, "SAEC [3]": {"test_system": "SAEC", "experiment": "TNF-α- and LPS-induced ROS generation in SAEC (DHE)", "conditions": "TNF-α 2 nM or LPS 1 μg/mL, 16 h", "protocol": "Dihydroethidium (DHE, Molecular Probes) staining for superoxide was carried out as described previously. Briefly, approximately 1×10^5 cells were seeded on chambered slides and starved in serum-free basal medium with AR inhibitor or carrier for 24 h. The cells were treated with TNF-α (2 nM) or LPS (1 μg/mL) or carrier for an additional 16 h. SAEC were rinsed with cold PBS and incubated in PBS containing HEt (2.5 μmol/L) at 37° C. for 15 min. Cells were rinsed in PBS and mounted with fluorsave mounting medium containing DAPI (Vector Laboratories Inc., Burlingame, Calif.). The image of ethidium staining was measured with a Nikon epifluorescence microscope with a 585 nm long-pass filter."}, "[4]": {"test_system": "IL-6, IL-8 and Cox-2 mRNA", "experiment": "TNF-α- and LPS-induced IL-6, IL-8 and Cox-2 mRNA in SAEC (RT-PCR)", "conditions": "TNF-α 2 nM or LPS 1 μg/ml, 6 h", "protocol": "The SAEC were grown in 6-well plates at a density of approximately 3.0×10^5 cells/well. After approximately 80% confluence cells were serum-starved in the presence or absence of sorbinil (20 μM) or carrier for 24 h and then stimulated with either TNF-α (2 nM) or LPS (1 μg/mL). Total RNA from SAEC was isolated by using RNeasy kit (Qiagen) as per supplier's instructions. Aliquots of RNA (0.5-1.0 μg) isolated from each sample were reverse transcribed with Omniscript and Sensiscript reverse transcriptase one-step RT-PCR system with HotStar Taq DNApolymerase (Qiagen) at 55° C. for 30 min followed by PCR amplification. The oligonucleotide primer sequences were as follows: 5′-[…]-3′ (SEQ ID NO:3) (sense) and 5′-[…]-3′ (SEQ ID NO:4) (antisense) for IL-6; 5′-[…]-3′ (SEQ ID NO:5) (sense) and 5′-TCT […]-3′ (SEQ ID NO:6) (antisense) for IL-8; 5′-TGAAACCCACTCCA AACACAG-3′ (SEQ ID NO:7) (sense) and 5′-[…]-3′ (SEQ ID NO:8) (antisense) for Cox-2; and 5′-[…]-3′ (SEQ ID NO:9) (sense) and 5′-CGTC […]-3′ (SEQ ID NO:10) (antisense) for β-actin. PCR was carried out in a PCR Sprint thermal cycler (Thermo electron corporation, Milford, Mass.) under the following conditions: initial denaturation at 95° C. for 15 min followed by 35 cycles of 94° C. 1 min, 62° C. 1 min, 72° C. 1 min, and then 72° C. 10 min for final extension. […]"}, "[5]": {"test_system": "Cox-2, iNOS, Bax, Bcl-xl, cyclin D1, E2F2", "experiment": "TNF-α- and LPS-induced inflammatory, apoptosis and cell cycle proteins in SAEC (Western blotting)", "conditions": "TNF-α 2 nM or LPS 1 μg/ml, 24 h", "protocol": "The cells after incubations were lysed in RIPA lysis buffer, and forty micrograms of cytoplasmic proteins were resolved on 10% SDS-PAGE gel. After electrophoresis, the proteins were electro-transferred to a nitrocellulose membrane, blocked with 5% nonfat milk in TBST, and probed with antibodies against COX-2, NOS2, Bax, cyclin D1, E2F2 (1:1,000 dilution) for 2 hr. The blot was then washed, exposed to HRP-conjugated secondary antibodies (1:5,000 dilution) for 1 hr, and the antigen-antibody complex was detected by enhanced chemiluminescence (Amersham Pharmacia Biotech, Piscataway, N.J., USA)."}}}
{"smiles": "O=C(O)Cc1nn(Cc2nc3cc(C(F)(F)F)ccc3s2)c(=O)c2ccccc12", "note": "[zopolrestat]", "values": [{"measurement": "prevention of RW-induced cell death", "setting": "SAEC [1]", "value": "> 80", "unit": "%"}, {"measurement": "prevention of RW-induced increase of COX-2 mRNA levels", "setting": "[2]", "value": "> 60", "unit": "%"}, {"measurement": "prevention of RW-induced increase of IL-6 and IL-8 mRNA levels", "setting": "[2]", "value": "> 70", "unit": "%"}, {"measurement": "TNF-α- and LPS-induced increase in ROS levels", "setting": "SAEC [3]", "value": "prevented these changes"}, {"measurement": "prevention of TNF-α- and LPS-induced increase of Cox-2 mRNA levels", "setting": "[4]", "value": "> 60", "unit": "%"}, {"measurement": "TNF-α- and LPS-induced increase of Cox-2 and iNOS protein expression", "setting": "[5]", "value": "significantly prevented this increase"}]}
